Results: patent publication US12655116B2, “Substituted isophthalic acid diamides” (Bayer Aktiengesellschaft, priority 2020, dated 2026)

Key:
[1] = test system: ABUTH; experiment: Pre-emergence herbicidal action against ABUTH; type: in vivo, Abutilon theophrasti; conditions: Abutilon theophrasti, 504 h; for pest or weed control at 80 g/ha: scored visually after 3 weeks vs untreated controls (100% = plants have died, 0% = like control plants)
In short: (§1)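 Sandy loam pots, seeds covered with soil, then surface-treated with WP or EC formulations at 600–800 l/ha water plus 0.2% wetting agent. Greenhouse, 3 weeks. Percent damage vs untreated controls.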

[2] = test system: ALOMY; experiment: Pre-emergence herbicidal action against ALOMY; type: in vivo, Alopecurus myosuroides; conditions: Alopecurus myosuroides, 504 h, pre-emergence; for pest or weed control at 80 g/ha: scored visually after 3 weeks vs untreated controls (100% = plants have died, 0% = like control plants)
In short: as §1

[3] = test system: AMARE; experiment: Pre-emergence herbicidal action against AMARE; type: in vivo, Amaranthus retroflexus; conditions: Amaranthus retroflexus, 504 h, scored visually after 3 weeks vs untreated controls, 100% = plants have died, 0% = like control plants
In short: as §1

[4] = test system: AVEFA; experiment: Pre-emergence herbicidal action against AVEFA; type: in vivo, Avena fatua; conditions: Avena fatua, 504 h, pre-emergence
In short: as §1

[5] = test system: ECHCG; experiment: Pre-emergence herbicidal action against ECHCG; type: in vivo, Echinochloa crus-galli; conditions: Echinochloa crus-galli, 504 h, 80 g/ha
In short: as §1

[6] = test system: LOLRI; experiment: Pre-emergence herbicidal action against LOLRI; type: in vivo, Lolium rigidum; conditions: Lolium rigidum, 504 h, 80 g/ha
In short: as §1

[7] = test system: MATIN; experiment: Pre-emergence herbicidal action against MATIN; type: in vivo, Matricaria inodora; conditions: Tripleurospermum inodorum, 504 h; for pest or weed control at 20 g/ha: dosage 20 g/ha; for pest or weed control at 80 g/ha: dosage 80 g/ha
In short: as §1

[8] = test system: PHBPU; experiment: Pre-emergence herbicidal action against PHBPU; type: in vivo, Pharbitis purpurea; conditions: Ipomoea purpurea, 504 h, dosage 80 g/ha
In short: as §1

[9] = test system: POLCO; experiment: Pre-emergence herbicidal action against POLCO; type: in vivo, Polygonum convolvulus; conditions: Fallopia convolvulus, 504 h, dosage 80 g/ha
In short: as §1

[10] = test system: SETVI; experiment: Pre-emergence herbicidal action against SETVI; type: in vivo, Setaria viridis; conditions: Setaria viridis, 504 h, dosage 80 g/ha
In short: as §1

[11] = test system: VERPE; experiment: Pre-emergence herbicidal action against VERPE; type: in vivo, Veronica persica; conditions: Veronica persica, 504 h, dosage 80 g/ha
In short: as §1

[12] = test system: VIOTR; experiment: Pre-emergence herbicidal action against VIOTR; type: in vivo, Viola tricolor; conditions: Viola tricolor, 504 h; for pest or weed control at 20 g/ha: dosage 20 g/ha; for pest or weed control at 80 g/ha: dosage 80 g/ha
In short: as §1

[13] = test system: DIGSA; experiment: Pre-emergence herbicidal action against DIGSA; type: in vivo, Digitaria sanguinalis; conditions: Digitaria sanguinalis, 504 h; for pest or weed control at 20 g/ha: dosage 20 g/ha; for pest or weed control at 80 g/ha: dosage 80 g/ha
In short: as §1

[14] = test system: ABUTH; experiment: Post-emergence herbicidal action against ABUTH; type: in vivo, Abutilon theophrasti; conditions: Abutilon theophrasti, 504 h, visual assessment about 3 weeks after treatment vs untreated controls; for pest or weed control at 20 g/ha: dosage 20 g/ha
In short: (§2)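 Visual % rating (0% = as untreated, 100% = dead) ~3 wk after spraying one-leaf-stage plants grown in sandy loam; WP/EC in water at 600–800 l/ha, 0.2% wetting agent.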

[15] = test system: ALOMY; experiment: Post-emergence herbicidal action against ALOMY; type: in vivo, Alopecurus myosuroides; conditions: Alopecurus myosuroides, 504 h, visual assessment about 3 weeks after treatment vs untreated controls; for pest or weed control at 20 g/ha: dosage 20 g/ha
In short: as §2

[16] = test system: AMARE; experiment: Post-emergence herbicidal action against AMARE; type: in vivo, Amaranthus retroflexus; conditions: Amaranthus retroflexus, 504 h, 20 g/ha, visual assessment about 3 weeks after treatment, 100% = plants have died, 0% = like control plants
In short: as §2

[17] = test system: ECHCG; experiment: Post-emergence herbicidal action against ECHCG; type: in vivo, Echinochloa crus-galli; conditions: Echinochloa crus-galli, 504 h; for pest or weed control at 20 g/ha: dosage 20 g/ha
In short: as §2

[18] = test system: MATIN; experiment: Post-emergence herbicidal action against MATIN; type: in vivo, Matricaria inodora; conditions: Tripleurospermum inodorum, 504 h; for pest or weed control at 5 g/ha: dosage 5 g/ha; for pest or weed control at 20 g/ha: dosage 20 g/ha
In short: as §2

[19] = test system: PHBPU; experiment: Post-emergence herbicidal action against PHBPU; type: in vivo, Pharbitis purpurea; conditions: Ipomoea purpurea, 504 h, dosage 20 g/ha
In short: as §2

[20] = test system: SETVI; experiment: Post-emergence herbicidal action against SETVI; type: in vivo, Setaria viridis; conditions: Setaria viridis, 504 h; for pest or weed control at 20 g/ha: dosage 20 g/ha
In short: as §2

[21] = test system: VERPE; experiment: Post-emergence herbicidal action against VERPE; type: in vivo, Veronica persica; conditions: Veronica persica, 504 h, 20 g/ha
In short: as §2

[22] = test system: VIOTR; experiment: Post-emergence herbicidal action against VIOTR; type: in vivo, Viola tricolor; conditions: Viola tricolor, 504 h, 20 g/ha
In short: as §2

[23] = test system: DIGSA; experiment: Post-emergence herbicidal action against DIGSA; type: in vivo, Digitaria sanguinalis; conditions: Digitaria sanguinalis, 504 h, 20 g/ha
In short: as §2

[24] = test system: AVEFA; experiment: Post-emergence herbicidal action against AVEFA; type: in vivo, Avena fatua; conditions: Avena fatua, 504 h, 20 g/ha, visual assessment about 3 weeks after treatment, 100% = plants have died, 0% = like control plants
In short: as §2

[25] = 20 g/ha, scored visually after 3 weeks, 100% = plants have died, 0% = like control plants

## Cc1c(C(=O)Nc2nnnn2C)ccc(C(F)(F)F)c1C(=O)NC(C)C [Example 1-33]
[1]
  pest or weed control at 80 g/ha: 100%
[1]; dosage 20 g/ha, scored visually after 3 weeks vs untreated controls, 100% = plants have died, 0% = like control plants, read-out: Pre-emergence action against ABUTH (herbicidal activity in percent)
  pest or weed control at 20 g/ha: 90%
[2]
  pest or weed control at 80 g/ha: 100%
[3]
  pest or weed control at 20 g/ha: 100%
  pest or weed control at 80 g/ha: 100%
[4]
  pest or weed control at 80 g/ha: 100%
[5]
  pest or weed control at 80 g/ha: 100%
[6]
  pest or weed control at 80 g/ha: 80%
[7]
  pest or weed control at 20 g/ha: 100%
  pest or weed control at 80 g/ha: 100%
[8]
  pest or weed control at 80 g/ha: 100%
[9]
  pest or weed control at 80 g/ha: 90%
[10]
  pest or weed control at 80 g/ha: 100%
[11]
  pest or weed control at 80 g/ha: 100%
[12]
  pest or weed control at 20 g/ha: 100%
  pest or weed control at 80 g/ha: 100%
[13]
  pest or weed control at 20 g/ha: 100%
  pest or weed control at 80 g/ha: 100%
[14]
  pest or weed control at 20 g/ha: 90%
[15]
  pest or weed control at 20 g/ha: 90%
[16]
  pest or weed control at 20 g/ha: 100%
[17]; dosage 5 g/ha
  pest or weed control at 5 g/ha: 80%
[17]
  pest or weed control at 20 g/ha: 90%
[18]
  pest or weed control at 5 g/ha: 80%
  pest or weed control at 20 g/ha: 80%
[19]
  pest or weed control at 20 g/ha: 80%
[20]; dosage 5 g/ha
  pest or weed control at 5 g/ha: 80%
[20]
  pest or weed control at 20 g/ha: 90%
[21]
  pest or weed control at 20 g/ha: 80%
[22]
  pest or weed control at 20 g/ha: 80%
[23]
  pest or weed control at 20 g/ha: 90%

## CCNC(=O)c1c(Br)ccc(C(=O)Nc2nnnn2CC)c1Cl [Example 2-178]
[1]
  pest or weed control at 80 g/ha: 100%
[2]
  pest or weed control at 80 g/ha: 100%
[2]; [25]
  pest or weed control at 20 g/ha: 80%
[3]
  pest or weed control at 20 g/ha: 100%
  pest or weed control at 80 g/ha: 100%
[4]
  pest or weed control at 80 g/ha: 100%
[4]; [25]
  pest or weed control at 20 g/ha: 90%
[5]
  pest or weed control at 80 g/ha: 100%
[6]
  pest or weed control at 80 g/ha: 80%
[7]
  pest or weed control at 20 g/ha: 90%
  pest or weed control at 80 g/ha: 100%
[10]
  pest or weed control at 80 g/ha: 100%
[11]
  pest or weed control at 80 g/ha: 90%
[12]
  pest or weed control at 20 g/ha: 100%
  pest or weed control at 80 g/ha: 100%
[13]
  pest or weed control at 20 g/ha: 100%
  pest or weed control at 80 g/ha: 100%
[14]; dosage 5 g/ha
  pest or weed control at 5 g/ha: 90%
[14]
  pest or weed control at 20 g/ha: 90%
[15]; dosage 5 g/ha
  pest or weed control at 5 g/ha: 80%
[15]
  pest or weed control at 20 g/ha: 90%
[16]
  pest or weed control at 20 g/ha: 100%
[24]
  pest or weed control at 20 g/ha: 80%
[17]
  pest or weed control at 20 g/ha: 90%
[18]
  pest or weed control at 5 g/ha: 90%
  pest or weed control at 20 g/ha: 90%
[19]
  pest or weed control at 20 g/ha: 90%
[20]
  pest or weed control at 20 g/ha: 90%
[22]
  pest or weed control at 20 g/ha: 90%
